Measured values published in US7109197B2, “N-phenyl-4-(4-pyridyl)-2-pyrimidineamine derivatives” (Syngenta Crop Protection, Inc., priority 2000, dated 2006).
Like-named read-outs stand apart in the source and are kept apart here.

Key:
[1] = test system: Puccinia graminis; assay type: in vivo
[2] = test system: Phytophthora infestans; assay type: in vivo
[3] = Puccinia graminis on wheat cv. Arina, 0.02% active substance spray (residual) or 0.002% soil (systemic), variant not stated

Row | SMILES | B1 activity [1, 3] | B1 activity ([1]; in vivo) | further results
1 | Clc1cccc(Nc2nccc(-c3ccnc(NC4CCOC4)c3)n2)c1 (centres unmarked) [Compound 2] | + (the activity observed in the corresponding test system is 70% or more) | – | –
2 | CCC(CO)Nc1cc(-c2ccnc(Nc3cccc(Cl)c3)n2)ccn1 (centres unmarked) [Compound 31] | + (the activity observed in the corresponding test system is 70% or more) | – | B2 activity ([2]; Phytophthora infestans on tomato cv. Roter Gnom, 0.02% active substance spray (residual) or 0.002% soil (systemic), variant not stated): + (the activity observed in the corresponding test system is 70% or more)
3 | CC(CO)Nc1cc(-c2ccnc(Nc3cccc(Cl)c3)n2)ccn1 (centres unmarked) [Compound 39] | + (the activity observed in the corresponding test system is 70% or more) | – | –
4 | OCCCNc1cc(-c2ccnc(Nc3cccc(Cl)c3)n2)ccn1 [Compound 46] | + (the activity observed in the corresponding test system is 70% or more) | – | –
5 | Nc1cc(-c2ccnc(Nc3cccc(Cl)c3)n2)ccn1 [Compound 58] | – | + (key: +: the activity observed in the corresponding test system is 70% or more) | –
6 | CCNc1cc(-c2ccnc(Nc3cccc(Cl)c3)n2)ccn1 [Compound 60] | – | + (key: +: the activity observed in the corresponding test system is 70% or more) | –
7 | CNc1cc(-c2ccnc(Nc3cccc(Cl)c3)n2)ccn1 [Compound 64] | – | – | B2 activity ([2]; in vivo): + (key: +: the activity observed in the corresponding test system is 70% or more)
8 | CC(C)Nc1cc(-c2ccnc(Nc3cccc(Cl)c3)n2)ccn1 [Compound 68] | – | + (key: +: the activity observed in the corresponding test system is 70% or more) | –
9 | Clc1cccc(Nc2nccc(-c3ccnc(NCC4CCCO4)c3)n2)c1 (centres unmarked) [Compound 75] | + (the activity observed in the corresponding test system is 70% or more) | – | –
10 | Clc1cccc(Nc2nccc(-c3ccnc(NCCCOc4ncccn4)c3)n2)c1 [Compound 94] | + (the activity observed in the corresponding test system is 70% or more) | – | –
